Test results taken from patent US20150141485A1, “PROGNOSIS AND TREATMENT OF LUNG CANCER USING miRNA-135b” (NATIONAL CHENG KUNG UNIVERSITY, priority 2013, published 2015).
Oligonucleotides are written 5' to 3', each unit as a sugar letter and its base; * is a phosphorothioate linkage, no mark a phosphodiester; rarer units and linkages stand in square brackets, end groups in braces. Plain capitals give the bases only. {Chol} = cholesterol; m = 2'-O-methyl

Key:
[1] = system: CL1-5-F4 cells; experiment: Transwell invasion assay; format: cell-based, human; conditions: CL1-5-F4 cells transfected 48 hours, vs scramble (NC)
Procedure: CL1-5-F4 and Hop-62 cells were transfected with scramble (NC) of miR-135b-specific antagomir (Antago-135b) for 48 hours and the subjected to migration assays (FIG. 2d) and invasion assays (FIG. 2e) as described above. *P<0.05;**P<0.005 by Student's t-test.
CL1-5-F4 cells transfected with plasmids expressing either control or miR-135b sponges were analyzed using in vitro invasion assay. The average number of invading cells obtained in the transwell invasion assay is presented (n=3).
Transwell chambers ([…], BD Falcon, Franklin Lakes, N.J.) were coated with the appropriate amount of Matrigel (BD Biosciences, San Jose, Calif.). Next, 2.5×10^4 cells were suspended in NuSerum-containing media (Gibco BRL, Grand Island N.Y., USA), seeded in the chamber and cultured, Cells that invaded the chamber from top to bottom were fixed with methanol and stained with a solution of propidium iodine (Sigma-Aldrich, St. Louis, Mo.). The propidiumiodine-positive signal was quantified using Analytical Imaging Station software package. Each sample was assayed in triplicate.

[2] = system: CL1-5-F4 cells; experiment: Late-stage metastasis model, intravenous injection of tumor cells; format: in vivo, mice; conditions: 3 months after i.v. cell injection, tail vein treatments, P=0.018
Description: CL1-5 cells with scramble antagomir (NC) or miR-135 antagomir (Antago-135b) were intravenously injected to assess the effect of antagomir on late-stage metastasis (n=9). Representative average of visible metastatic lung nodules and H&E staining (right). Data are expressed as the mean±s.e.m. *P<0.05 by Student's t-test.
Animals were housed in a specific-pathgen-free environment in the animal facility of the Institute of Biomedical Sciences, Academia Sinica. All experimental procedures were in compliance with the Academia Sinica IACUC and Council of Agriculture Guidebook for the Care and Use of Laboratory Animals. For intravenous injections of the tumor cells, 1×10^6 cells were suspended in 0.1 mL of phosphate-buffered saline (PBS) and injected into lateral tail vein of SCID mice (10 mice per group). […] For the subcutaneous tumor assay, 1×10^6 CL1-0 cells or 2×10^5 H441 cells were subcutaneously injected in 0.1 mL of PBS into male nude mice (n=8 per group) and allowed to grow for 35 days to reach a volume of 50-200 mm^3 Control antagomir (Scramble) or anti-miR-135b antagomir (antago-135) was intravenously injected at a concentration of 10 μM in 0.1 mL of PBS 4 days after the cells were implanted. […]
The impact of the antagomir during the late stages in metastasis was determined, such as extravasation and colonization. […]

[3] = system: CL1-5-F4 cells; experiment: Western blot of endogenous LZTS1; format: cell-based, human; conditions: 100 nM, 48 hours
Procedure: CL1-5-F4 and UACC-257 cells were administrated with 100 nM of negative control (NC) or antago-135b for 48 hours. Total cell lysates were harvested for western blot analysis.

[4] = system: CL1-5-F4 cells; experiment: Western blot of Hippo pathway proteins; format: cell-based, human; conditions: 72 hours
Procedure: (§1) Western bolt analysis of the Hippo pathway proteins in CL1-5-F4 and CL141 cells incubated with Scramble (NC) of Antago-135b for 72 hours. Quantitative RT-PCR was used to assay miR-135b knockdown activity.

[5] = system: CL1-5-F4 cells; experiment: Soft agar anchorage-independent growth assay; format: cell-based, human; conditions: CL1-5-F4 cells transfected 48 hours, vs NC
Procedure: CL1-5-F4 and Hop-62 cells were transfected with the negative control (NC) or the Anatago-135b for 48 hours and subjected to soft agar assays. Error bars indicate mean±s.d.,*P<0.05 by Student's t-test.

[6] = system: CL141 cells; experiment: Western blot of Hippo pathway proteins; format: cell-based; conditions: 72 hours
Procedure: as §1

## 5′mU(*)mC(*)mAmCmAmUmAmG-mGmAmAmUmGmAmAmAmAmGmCmC(*)mA(*)mU(*)mA(*)(3′-Ch1)3′ (SEQ ID NO:8) (mU*mC*mAmCmAmUmAmGmGmAmAmUmGmAmAmAmAmGmCmC*mA*mU*mA*{Chol}) [miR-135b antagomir]
[1]
  invasive ability: inhibited these changes
[2]
  metastatic lung nodules vs control group: eight-fold fewer
[3]
  LZTS1 expression: significantly increased
[4]
  LATS2, β-TrCP and NDR2 expressions: induced
  TAZ protein expression: reduced
[5]
  number of cell colonies (soft agar): decreased
[6]
  LATS2, β-TrCP and NDR2 expressions: induced
  TAZ protein expression: reduced
